The values that follow come from patent publication US11305021B2, “Membrane-lytic block copolymers” (UNIVERSITY OF WASHINGTON, priority 2016, dated 2022).

“Also recorded” adds a separate entry of the source.

The nature of data set [1]: Assembly behavior of VIPER by TEM imaging and DLS analysis. Format: physicochemical. The text has this: To verify this hypothesized mechanism, the assembly behavior of VIPER at pH 7.4 and pH 5.7 was monitored by both transmission electron microscopy (TEM) imaging and dynamic light scattering (DLS) analysis. VIPER assembles into uniform spherical nanoparticles with diameter around 30 nm at pH 7.4 (FIGS. 2A and C for TEM and DLS, respectively).
The morphology of polymers and polyplexes under dried state were imaged on a JEOL 1140 TEM at an acceleration voltage of 100 kV. In order to observe the morphology of polymer assemblies under different pHs, the polymer solutions (1 mg/mL, in distilled water) were diluted with PB to pH 7.4 and 5.7. Then the resulting solutions (10 μL) were deposited on the top of the 400-mesh formvar/copper grids and incubated at room temperature for 30 min. After staining with uranyl acetate, the grids were allowed to air dry overnight. The preparation of polyplexes samples were the same as polymer samples.

The test system of data set [2] is HeLa, KB, A549 and Z310 cells. In words: In vitro transfection with luciferase plasmid. The class given is cell-based. Here is the method:
HeLa, KB, Z310 and A549 cells were seeded at a density of 25,000 cells/well in complete cell culture medium in a 24-well plate. Cells were firstly incubated at 37° C., 5% CO2 for 24 h. Polyplexes were prepared at different N/P ratios using 0.5 μg of pCMV-Luc2 pDNA in 10 μL total volume. Each sample was diluted to 200 μL with complete cell culture medium. The cells were rinsed once with PBS, followed by the addition of transfection solution. After incubation for 4 h, cells were washed with PBS twice and the polyplexes solution was replaced with complete cell culture medium. After additional 20 h incubation, luciferase activity was quantified with a luciferase assay kit (Promega Corp, Fitchburg, Wis.) according to the manufacturer's instruction, except that a freeze-thaw cycle at −80 OC was included after the addition of the lysis buffer to ensure complete cell lysis. Luminescence intensity was measured on the plate reader with integration for 1 s. The total protein content in each well was measured by a BCA Protein Assay Kit (Thermo Scientific, Rockford, Ill.) according to the manufacturer's instruction so that the luciferase activity was normalized to the total protein content in each well. Each sample was tested with a sample size (n)=3. The N/P ratio used for bPEI is 5, which was previous determined to show optimized transfection efficiency. […]

Data set [3] concerns HeLa, KB, A549 and Z310 cells. In words: GFP transfection. Format: cell-based. The following applies: GFP plasmid. The method, then: The transfection with GFP (green fluorescence plasmid) on different cell lines was the same as that with luciferase plasmid. For analysis, cells were washed with PBS, trypsinized and pelleted at 300×g for 5 min at 4° C. The pellet was resuspended in 0.3 mL propidium iodide (PI) solution (1 μg/mL in 0.5% BSA in PBS), kept on ice and analyzed using flow cytometry, MACSQuant Analyzer (Miltenyi Biotec Inc., Auburn, Calif.). Intact cells were identified using the forward and side scatter data. The resulting cell population was gated into GFP+/PI+, GFP+/PI−, GFP−/PI+ and GFP−/PI− based on the green fluorescence and PI intensity from the control samples (cells transfected without the polymers but DNA only) and reported as the mean percentage of cell population that is GFP+/PI− including standard deviation (SD). All experiments were conducted in triplicate.

A further data set relates to human red blood cells. In words: Hemolysis assay (acid-triggered membrane-lytic activity). Format: cell-based. The method, then:
Hemolysis assay was used to evaluate the acid-triggered membrane-lytic activity of the synthesized materials at pH 7.4 (extracellular pH) and 5.7 (endosomal pH). Briefly, plasma from human blood was removed by centrifugation. The red blood cells were washed three times with 150 mM NaCl, and resuspended into phosphate buffer (PB) at pH 7.4 or 5.7. The polymers at various concentrations ([…]) and 1% Triton X-100 as control, were added to the RBC suspensions in a 96-well conical plate and was allowed to incubate for 1 h at 37° C. After centrifugation, the released hemoglobin within the supernatant was measured by UV at 541 nm. Percent hemolysis was calculated relative to Triton X-100. Experiments were performed in triplicate.

Consider “P(OEGMA11-DMAEMA56)-b-p(DIPAMA33-PDSEMA-g-melittin)1) [VIPER]”, for which, in data set [1] (pH 5.7), the assemblies observed entry is “no assemblies were observed”. In data set [1] (pH 7.4), the diameter of nanoparticles result was “around 30 nm”. The “transfection efficiency compared to optimized LF formulations” value in data set [2] (HeLa, KB and Z310 cells) was “improved transfection efficiency”. In addition, in data set [2] (all tested cell lines), the “luciferase activity compared to CP and bPEI” value is “orders of magnitude higher”. Also, in data set [3], the “fold more transfected cells compared to CP” value is 13- to 60 fold and the “fold more transfected cells compared to bPEI” value is reported as 11- to 46 fold. Moreover, the “transfection efficiency, GFP+ cells” value in data set [3] (range over cell lines) is listed as 36-77%. Moreover, in the data set with human red blood cells (pH 5.7), the “concentration for 50% lysis” value was found to be 30 µg/mL and the “concentration for complete lysis” value was 120 µg/mL. For the same substance, in the data set with human red blood cells (pH 7.4, VIPER concentrations as high as 240 μg/mL), the cell lysis entry is “no significant cell lysis; also recorded: minimal membrane-lytic activity”.
